Assay [1] concerns the target T1, Cannabinoid receptor 1 (Homo sapiens, UniProt P21554). The assay can be described thus: Displacement of [3H]CP55,940 from human CB1 receptor expressed in CHOK1 cell membranes at 1 uM after 2 hrs by liquid scintillation counting method relative to control. On the technique in general: Displacement assays read how much labelled ligand stays bound in the presence of the test substance.

Assay [2] concerns the target T1, Cannabinoid receptor 1. In words: Displacement of [3H]CP55,940 from human CB1 receptor expressed in CHOK1 cell membranes after 2 hrs by liquid scintillation counting method.
Assay [3] addresses T2, Cannabinoid receptor 2 (Homo sapiens, UniProt P34972). The assay can be described thus: Displacement of [3H]CP55,940 from human CB2 receptor expressed in CHOK1 cell membranes at 1 uM after 2 hrs by liquid scintillation counting method relative to control.
The target in assay [4] is T2, Cannabinoid receptor 2. In words: Displacement of [3H]CP55,940 from human CB2 receptor expressed in CHOK1 cell membranes after 2 hrs by liquid scintillation counting method.
The target in assay [5] is T3, Fatty-acid amide hydrolase 1 (Homo sapiens) (UniProt O00519).
T3 sequence (whole entry): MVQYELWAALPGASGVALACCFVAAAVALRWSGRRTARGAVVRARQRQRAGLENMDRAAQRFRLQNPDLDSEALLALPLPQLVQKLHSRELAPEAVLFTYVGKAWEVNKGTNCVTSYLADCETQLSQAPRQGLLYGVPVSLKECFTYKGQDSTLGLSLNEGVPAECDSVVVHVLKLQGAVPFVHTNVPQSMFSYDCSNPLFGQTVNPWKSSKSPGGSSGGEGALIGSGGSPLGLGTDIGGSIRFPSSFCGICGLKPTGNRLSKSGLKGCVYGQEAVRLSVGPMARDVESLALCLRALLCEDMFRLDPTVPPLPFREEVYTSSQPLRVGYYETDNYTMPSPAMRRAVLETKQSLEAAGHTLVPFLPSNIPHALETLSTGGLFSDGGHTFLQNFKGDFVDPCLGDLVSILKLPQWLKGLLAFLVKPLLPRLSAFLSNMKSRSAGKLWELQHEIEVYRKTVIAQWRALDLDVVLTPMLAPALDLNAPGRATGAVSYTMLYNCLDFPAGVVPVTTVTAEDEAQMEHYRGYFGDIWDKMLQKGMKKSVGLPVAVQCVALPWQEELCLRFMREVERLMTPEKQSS
The assay can be described thus: Inhibition of FAAH in human U937 cells using [ethanolamine-1-3H]AEA as substrate at 10 uM after 15 mins by liquid scintillation counting method relative to control. Type of assay: cell-based.

For assay [6], the target named is T4, Fatty-acid amide hydrolase 1 (Homo sapiens, UniProt O00519).
T4 sequence (O00519 whole entry): T3 sequence (whole entry)
In words: Inhibition of FAAH in human U937 cells using [ethanolamine-1-3H]AEA as substrate after 15 mins by liquid scintillation counting method. Type of assay: cell-based.

Another assay is filed under the species Sus scrofa. The assay can be described thus: Inhibition of MAGL in pig brain homogenates using [3H]2-OG as substrate at 10 uM after 15 mins in presence of URB597 by liquid scintillation counting method. Type of assay: tissue-based.
The target of assay [7] is T5, Monoacylglycerol lipase ABHD6 (Mus musculus) (UniProt Q8R2Y0).
T5 sequence (whole entry): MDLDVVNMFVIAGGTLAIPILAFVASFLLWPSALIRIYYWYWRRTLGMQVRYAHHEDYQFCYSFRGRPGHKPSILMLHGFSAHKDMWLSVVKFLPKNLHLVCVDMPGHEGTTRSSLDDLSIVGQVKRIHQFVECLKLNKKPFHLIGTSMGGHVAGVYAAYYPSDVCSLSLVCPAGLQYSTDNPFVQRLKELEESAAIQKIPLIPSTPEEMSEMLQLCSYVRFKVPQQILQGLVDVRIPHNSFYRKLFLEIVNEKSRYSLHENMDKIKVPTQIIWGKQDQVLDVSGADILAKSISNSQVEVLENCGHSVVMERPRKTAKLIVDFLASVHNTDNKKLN
In words: Inhibition of ABHD6 in mouse BV2 cells preincubated for 30 mins and subsequent addition of [3H]-2-OG substrate measured after 15 mins by liquid scintillation counting method. Type of assay: cell-based.

Assay [8] deals with T6, Lysophosphatidylserine lipase ABHD12 (Mus musculus) (UniProt Q99LR1).
T6 sequence (whole entry): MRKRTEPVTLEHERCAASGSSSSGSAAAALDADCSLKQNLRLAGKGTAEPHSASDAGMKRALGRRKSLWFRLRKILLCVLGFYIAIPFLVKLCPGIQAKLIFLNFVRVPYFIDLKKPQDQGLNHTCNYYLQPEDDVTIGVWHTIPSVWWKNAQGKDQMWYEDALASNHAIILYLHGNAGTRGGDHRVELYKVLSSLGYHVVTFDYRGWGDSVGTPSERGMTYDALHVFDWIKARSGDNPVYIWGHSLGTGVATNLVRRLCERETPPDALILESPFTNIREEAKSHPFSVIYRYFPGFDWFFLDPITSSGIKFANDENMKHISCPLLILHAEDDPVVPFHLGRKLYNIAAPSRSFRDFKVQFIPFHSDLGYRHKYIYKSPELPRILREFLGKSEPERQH
In words: Inhibition of ABHD12 in mouse BV2 cells preincubated for 30 mins and subsequent addition of [3H]-2-OG substrate measured after 15 mins by liquid scintillation counting method. Type of assay: cell-based.

Assay [9] in a line: Inhibition of MAGL in pig brain homogenates using [3H]2-OG as substrate after 15 mins by liquid scintillation counting method. Type of assay: tissue-based, Sus scrofa.
In assay [10] the target is T7, Prostaglandin G/H synthase 2 (Homo sapiens, UniProt P35354).
T7 sequence (P35354 whole entry): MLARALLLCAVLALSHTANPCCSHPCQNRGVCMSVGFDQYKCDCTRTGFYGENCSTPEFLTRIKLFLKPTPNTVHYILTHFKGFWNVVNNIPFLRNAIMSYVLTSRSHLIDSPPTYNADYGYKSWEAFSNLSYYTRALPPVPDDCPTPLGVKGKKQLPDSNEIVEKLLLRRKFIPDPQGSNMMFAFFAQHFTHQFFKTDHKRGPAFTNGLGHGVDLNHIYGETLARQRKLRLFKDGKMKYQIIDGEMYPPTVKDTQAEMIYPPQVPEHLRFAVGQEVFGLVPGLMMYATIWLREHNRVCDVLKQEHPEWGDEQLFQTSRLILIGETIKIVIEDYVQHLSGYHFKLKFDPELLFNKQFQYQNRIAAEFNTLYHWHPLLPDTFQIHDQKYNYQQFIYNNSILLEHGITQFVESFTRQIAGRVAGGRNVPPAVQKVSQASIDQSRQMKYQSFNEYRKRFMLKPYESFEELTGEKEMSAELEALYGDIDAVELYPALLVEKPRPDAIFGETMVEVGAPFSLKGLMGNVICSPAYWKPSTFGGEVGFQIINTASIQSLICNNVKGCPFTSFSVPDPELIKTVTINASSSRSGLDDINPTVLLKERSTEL
In words: Inhibition of recombinant human COX2 preincubated for 15 mins followed by arachidonic acid/2-OG substrate addition after 5 mins by ADHP probe-based fluorescence assay.

For assay [11], the target named is T3, Fatty-acid amide hydrolase 1 (Homo sapiens). The assay can be described thus: Inhibition of FAAH in human U937 cells assessed as decrease in [ethanolamine-1-3H]AEA uptake at 10 uM preincubated for 2 mins followed by AEA addition after 5 mins by liquid scintillation counting method. Type of assay: cell-based.
Assay [12] has as its target T4, Fatty-acid amide hydrolase 1. In words: Inhibition of FAAH in human U937 cells assessed as decrease in [ethanolamine-1-3H]AEA uptake preincubated for 2 mins followed by AEA addition after 5 mins by liquid scintillation counting method. Type of assay: cell-based.

Active and inactive are the calls of the source. No cut-off for these calls is given here.

T2 sequence (P34972 whole entry): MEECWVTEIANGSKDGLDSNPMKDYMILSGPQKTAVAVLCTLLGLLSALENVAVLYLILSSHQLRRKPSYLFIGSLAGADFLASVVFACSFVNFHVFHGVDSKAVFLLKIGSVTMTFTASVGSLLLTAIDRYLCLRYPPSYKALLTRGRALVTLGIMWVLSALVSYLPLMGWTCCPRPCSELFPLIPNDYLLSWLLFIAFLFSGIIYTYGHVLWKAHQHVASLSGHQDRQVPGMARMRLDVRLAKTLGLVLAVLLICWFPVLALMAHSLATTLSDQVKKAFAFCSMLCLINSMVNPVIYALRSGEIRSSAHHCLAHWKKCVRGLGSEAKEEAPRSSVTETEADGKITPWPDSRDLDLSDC
T1 sequence (P21554 whole entry): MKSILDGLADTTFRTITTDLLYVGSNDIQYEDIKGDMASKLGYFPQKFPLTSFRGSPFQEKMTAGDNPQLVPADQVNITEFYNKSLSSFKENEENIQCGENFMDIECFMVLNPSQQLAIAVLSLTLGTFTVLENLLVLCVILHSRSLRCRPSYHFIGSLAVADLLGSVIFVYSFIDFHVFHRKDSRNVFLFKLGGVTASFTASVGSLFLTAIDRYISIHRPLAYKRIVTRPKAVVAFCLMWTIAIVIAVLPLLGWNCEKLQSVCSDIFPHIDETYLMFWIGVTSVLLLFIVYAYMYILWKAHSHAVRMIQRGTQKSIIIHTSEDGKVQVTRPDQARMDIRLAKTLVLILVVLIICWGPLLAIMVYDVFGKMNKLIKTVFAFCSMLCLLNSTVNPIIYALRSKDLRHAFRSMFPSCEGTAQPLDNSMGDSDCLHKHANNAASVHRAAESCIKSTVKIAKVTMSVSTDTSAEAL

With `CCCCCCCCCCCC(=O)c1c(O)c(-c2ccc(O)cc2)c[nH]c1=O`, the figures for the inhibition (at Cannabinoid receptor 1 [1]; in assay [5]) were 50% and 40 to 50%, respectively. Further, the results for the Ki on Cannabinoid receptor 1 [2] and on Cannabinoid receptor 2 [4] were 1000 nM and over 1000 nM, respectively. For the same molecule, the inhibition entry (on Cannabinoid receptor 2 [3]; in the assay filed under Sus scrofa; in [7]; in assay [8]) was “inactive” each time. Further, the IC50 (as a rule, the point on the concentration scale where inhibition reaches its midpoint) is 4600 nM in assay [6], over 10000 nM in assay [9], over 10000 nM in [10] and 800 nM in assay [12]. Also, the inhibition (in general, the drop in the measured response relative to a control, in per cent) in [11] was “Active”.
For `CCCCCCCCCCC[C@@H](C[C@@H]1OC(=O)[C@H]1CCCCCC)OC(=O)[C@H](CC(C)C)NC=O`, the inhibition result in [7] and in assay [8] was “Active” in each case.
As for `CCC(C)/C=C(C)/C=C/C=C/C(=O)c1c(O)c(-c2ccc(O)cc2)c[nH]c1=O` (centres undefined), the inhibition at Cannabinoid receptor 1 [1] and on Cannabinoid receptor 2 [3] was under 20% throughout. The inhibition entry (in the assay filed under Sus scrofa; in assay [7]; in [8]; in assay [11]) was “inactive” each time.
`CCC(/C=C(C)/C=C/C(=O)c1c(O)c(-c2ccc(O)cc2)c[nH]c1=O)CO` (centres undefined): the inhibition on Cannabinoid receptor 1 [1] and at Cannabinoid receptor 2 [3] was under 20% each time. Also, the inhibition result (in the assay listed under Sus scrofa; in assay [7]; in [8]; in assay [11]) was “inactive” in each case.
Take `CN(Cc1cccc(-c2ccncc2)c1)C(=O)Oc1ccc(-c2ccc(C(N)=O)cc2)cc1`: the inhibition result in [7] and in assay [8] was “Active” each time.
Regarding `CCCCCCCCCCCCCCCCCC(=O)c1c(O)c(-c2ccc(O)cc2)c[nH]c1=O`, the inhibition on Cannabinoid receptor 1 [1] and at Cannabinoid receptor 2 [3] was under 20% throughout. For the same molecule, the Ki on Cannabinoid receptor 1 [2] and on Cannabinoid receptor 2 [4] was over 1000 nM in each case. The IC50 in assay [6], in assay [9], in assay [10] and in assay [12] was over 10000 nM each time. Further, the inhibition entry (in the assay filed under Sus scrofa; in [7]; in assay [8]; in assay [11]) was “inactive” each time.
On to `CCC(/C=C/C=C/C=C/C(=O)c1c(O)c(-c2ccc(O)cc2)c[nH]c1=O)CO` (centres undefined), for which the inhibition at Cannabinoid receptor 1 [1] and on Cannabinoid receptor 2 [3] was under 20% each time. The inhibition result (in the assay listed under Sus scrofa; in [7]; in assay [8]; in [11]) was “inactive” throughout.
Turning to `CCC(C)CC(C)/C=C(C)/C=C/C=C/C(=O)c1c(O)c(-c2ccc(O)cc2)c[nH]c1=O` (centres undefined), the inhibition on Cannabinoid receptor 1 [1] was under 20%; at Cannabinoid receptor 2 [3], under 20%; in assay [5] it was 40 to 50%. Moreover, the inhibition entry (in the assay filed under Sus scrofa; in assay [7]; in [8]) was “inactive” each time. Besides, the inhibition result in assay [11] is “Active”.
Molecule `CC[C@@H](C)/C=C(C)/C=C/C(=O)c1c(O)c(-c2ccc(O)cc2)c[nH]c1=O` displayed an inhibition at Cannabinoid receptor 1 [1] of 40%. Also, the inhibition entry (in the assay filed under Sus scrofa; in assay [7]; in assay [8]) was “inactive” each time. Moreover, the inhibition result in assay [11] was “Active”.
Consider `O=C(Oc1ccc([N+](=O)[O-])cc1)N1CCC(C(O)(c2ccc3c(c2)OCO3)c2ccc3c(c2)OCO3)CC1`, for which the inhibition entry (in the assay listed under Sus scrofa; in [7]; in assay [8]) was “inactive” throughout.
On Cannabinoid receptor 1 [1], `CCC(C)CC(C)/C=C(C)/C=C/C(=O)c1c(O)c(-c2ccc(O)cc2)c[nH]c1=O` (centres undefined) showed an inhibition of 40%. The inhibition entry (in the assay filed under Sus scrofa; in [7]; in [8]; in [11]) was “inactive” throughout.
For the molecule `CCC(C)/C=C(C)/C=C/C=C/C(=O)c1c(OC)c(-c2ccc(O)cc2)c[nH]c1=O` (centres undefined), the inhibition at Cannabinoid receptor 1 [1] and at Cannabinoid receptor 2 [3] was under 20% each time. The inhibition result (in the assay filed under Sus scrofa; in assay [7]; in assay [8]) was “inactive” each time. Also, in assay [11], the inhibition result was “Active”.
Take `NC(=O)c1cccc(-c2cccc(OC(=O)NC3CCCCC3)c2)c1`: the inhibition entry (in the assay filed under Sus scrofa; in assay [7]; in assay [8]) was “inactive” in each case.
Turning to `C=CCCCOC(=O)c1c(O)c(-c2ccc(O)cc2)c[nH]c1=O`, the inhibition on Cannabinoid receptor 1 [1] and at Cannabinoid receptor 2 [3] was under 20% in each case. For the same molecule, the inhibition entry (in the assay listed under Sus scrofa; in assay [7]; in assay [8]; in assay [11]) was “inactive” in each case.
With `CCC(C)/C=C(C)/C=C/C=C/C=C/C(=O)c1c(O)c(-c2ccc(O)cc2)c[nH]c1=O` (centres undefined) [FARINOSONE A], the inhibition at Cannabinoid receptor 1 [1] and at Cannabinoid receptor 2 [3] was under 20% throughout. Besides, the Ki at Cannabinoid receptor 1 [2] and on Cannabinoid receptor 2 [4] was over 1000 nM each time. In addition, the half-inhibitory concentration (IC50) in [6] is over 10000 nM; in assay [9], over 10000 nM; in assay [10], over 10000 nM; in [12], 1200 nM. Further, the inhibition result (in the assay filed under Sus scrofa; in [7]; in assay [8]) was “inactive” throughout. In addition, in assay [11], the inhibition entry was “Active”.

Values taken from ChEMBL document CHEMBL4043078, “Biological evaluation of pyridone alkaloids on the endocannabinoid system” (Bioorg Med Chem, 2017).
